Reference: patent publication US20070015174A1, “High throughput formulation screening of drug candidates” (priority 2005, published 2007)
≈ marks a conversion by molar mass, not a printed value. Like-named read-outs stand apart in the source and are kept apart here.

What was measured:
[1] = cited from earlier work
[2] = High throughput formulation screening: solubility of compound in 96 formulations (5 μL scale, image capture); assay type: physicochemical; conditions: for solubility: thermodynamic from solid
Description: The solubility of the compound in the various excipients is then evaluated by comparing the captured images (e.g., first, second, third, and fourth images). […] All stock solutions were prepared with ultrapure ASTM Type I water and sterile-filtered using a 0.22 micron filter. The solutions were then attached to the MATRIX MAKER liquid-handling robot for sterile path, positive pressure dispensation into an SBS (Society for Biomolecular Screening) standard-sized 96 deep well plates. The screening formulations are defined in the CRYSTAL MINER software, which drives the MATRIX MAKER and allows for the rapid development of refinement screens for the optimization of lead hits. Once the formulations have been dispensed, the plate is sealed and centrifuged at 2000 rpm to ensure that each well contains a homogeneous solution. […] The DROP MAKER micro-scale liquid handler then dispenses 5 μL of the compound solution into a 96-well SBS format plate. […] Images were then captured of each well by the CRYSTAL MONITOR workstation (Session 1). Then 5 μL of each formulation screening solution were added to separate wells and images were captured for each well (Session 2) as above. Following image capture, the plate was heated to 45° C. for 30 minutes, then agitated for 10 minutes at room temperature during cool down. Additional images are captured on day one (t=1, Session 3) and day three (t=3, Session 4). Images and data annotation are exported to Excel for final report generation. The solubility of triclocarban in the formulations screening set (96 conditions) was obtained after the high throughput screening at target solubility of 10 mg/mL by the method described above: […]

## O=C(Nc1ccc(Cl)cc1)Nc1ccc(Cl)c(Cl)c1 [TCC, 3,4,4′-trichlorocarbanilide]
[1]; 20% RMbCD with additives
  solubility: about 5 mg/mL
[1]; acetone
  solubility in organic solvents: soluble
[1]; propylene glycol
  solubility in organic solvents: to some extent
[1]; pure water, room temperature
  intrinsic solubility (S0): less than 50 ng/ml
[1]; water
  solubility in water: water-insoluble
[2]; 10 mg/mL, IV dosing solution PEG 300/polysorbate 80/EtOH/SGF (40/5/5/50)
  solubility in formulation: nearly completely dissolved
[2]; 10 mg/mL, IV dosing solution PEG 300/polysorbate 80/SGF (45/5/50)
  solubility in formulation: nearly completely dissolved
[2]; 10 mg/mL, NMP/polysorbate 80 (9/1)
  solubility in formulation: easily dissolved
[2]; 10 mg/mL, PEG 300/polysorbate 80 (9/1)
  solubility in formulation: easily dissolved
[2]; 10 mg/mL, PEG 400/polysorbate 80/EtOH (8/1/1)
  solubility in formulation: easily dissolved
[2]; 10 mg/mL, PEG 400/polysorbate (3/1)
  solubility in formulation: easily dissolved
[2]; 10 mg/mL, SEDDS carpryol 90/PEG 400/cremophor EL (4/3/3)
  solubility in formulation: dissolved
[2]; 10 mg/mL, SEDDS labrafac CC/imwitor 988/cremophor (25/27/48)
  solubility in formulation: dissolved
[2]; 10 mg/mL, SEDDS sesame oil/maisine 35-1/polysorbate 80 (25/27/48)
  solubility in formulation: dissolved
[2]; 10 mg/mL, SEDDS soybean oil/maisine 35-1/polysorbate 80/EtOH (35/20/35/10)
  solubility in formulation: dissolved
[2]; 10 mg/mL, cosolvent PEG 400/EtOH (7/3)
  solubility in formulation: easily dissolved
[2]; 10 mg/mL, cosolvent PEG 400/EtOH/PG (4/1/5)
  solubility in formulation: easily dissolved
[2]; Carpryol 90 (formulation screening solution), oil or lipid, target 10 mg/mL, Carpryol 90
  solubility: ~10000 µg/mL (≈ 31.7 mM)
[2]; Cremophor EL (formulation screening solution), aqueous with cosolvent or surfactant or cyclodextrin, target 10 mg/mL, Cremophor EL
  solubility: ~10000 µg/mL (≈ 31.7 mM)
[2]; Labrafil M 1944 CS (formulation screening solution), oil or lipid, target 10 mg/mL, Labrafil M 1944 CS
  solubility: ~10000 µg/mL (≈ 31.7 mM)
[2]; Labrasol (formulation screening solution), aqueous with cosolvent or surfactant or cyclodextrin, target 10 mg/mL, Labrasol
  solubility: ~10000 µg/mL (≈ 31.7 mM)
[2]; N-methyl-2-pyrrolidinone (formulation screening solution), organic solvent or mixture, target 10 mg/mL, N-methyl-2-pyrrolidinone
  solubility: ~10000 µg/mL (≈ 31.7 mM)
[2]; Softigen 767 (formulation screening solution), aqueous with cosolvent or surfactant or cyclodextrin, target 10 mg/mL, Softigen 767
  solubility: ~10000 µg/mL (≈ 31.7 mM)
[2]; lauroglycol FCC (formulation screening solution), oil or lipid, target 10 mg/mL, lauroglycol FCC
  solubility: ~10000 µg/mL (≈ 31.7 mM)
[2]; peppermint oil (formulation screening solution), oil or lipid, target 10 mg/mL, peppermint oil
  solubility: ~10000 µg/mL (≈ 31.7 mM)
[2]; target 10 mg/mL, 20% TPGS
  solubility in formulation: partially dissolved
[2]; target 10 mg/mL, 20% povidone
  solubility in formulation: neither glycerine, safflower oil, sesame oil, nor 20% povidone had any effect
[2]; target 10 mg/mL, Capmul MCM C8
  solubility in formulation: dissolve TCC completely
[2]; target 10 mg/mL, HPbCD
  solubility in formulation: partially dissolved
[2]; target 10 mg/mL, Imwitor 988
  solubility in formulation: dissolve TCC completely
[2]; target 10 mg/mL, PEG 300
  solubility in formulation: dissolve TCC completely
[2]; target 10 mg/mL, PEG 400
  solubility in formulation: dissolve TCC completely
[2]; target 10 mg/mL, Polysorbate 80
  solubility in formulation: dissolve TCC completely
[2]; target 10 mg/mL, RMbCD
  solubility in formulation: partially dissolved
[2]; target 10 mg/mL, adjustment of pH to between 2 and 10
  solubility in formulation: no effect
[2]; target 10 mg/mL, corn oil
  solubility in formulation: partially dissolved
[2]; target 10 mg/mL, dimethylacetamide
  solubility in formulation: dissolve TCC completely
[2]; target 10 mg/mL, glycerine
  solubility in formulation: neither glycerine, safflower oil, sesame oil, nor 20% povidone had any effect
[2]; target 10 mg/mL, imwitor 380
  solubility in formulation: partially dissolved
[2]; target 10 mg/mL, labrafac CC
  solubility in formulation: partially dissolved
[2]; target 10 mg/mL, maisine 35-1
  solubility in formulation: partially dissolved
[2]; target 10 mg/mL, neobee M-5
  solubility in formulation: partially dissolved
[2]; target 10 mg/mL, oleic acid
  solubility in formulation: partially dissolved
[2]; target 10 mg/mL, safflower oil
  solubility in formulation: neither glycerine, safflower oil, sesame oil, nor 20% povidone had any effect
[2]; target 10 mg/mL, sesame oil
  solubility in formulation: neither glycerine, safflower oil, sesame oil, nor 20% povidone had any effect
[2]; target 10 mg/mL, soybean oil
  solubility in formulation: partially dissolved
